Measurements: patent US20260209199A1, “TRISULFIDE COMPOUND” (Kyowa Pharma Chemical Co., Ltd., priority 2022, published 2026)

Experiments:
[1] = Octanol/water partition coefficient (log P), HPLC; conditions: octanol/purified water, log10(concentration in octanol layer/concentration in aqueous layer)
Description: (§1) Then, 10 mL of octanol was added to each aqueous solution and shaken for 1 minute. 2 mL each was taken from the aqueous layer and the octanol layer, centrifuged, and allowed to stand for 1 hour. 1 mL was precisely measured from the standing solution, 2-propanol was added, and the volume was made up to 10 mL. […] (log P=log10 (concentration in octanol layer/concentration in aqueous layer))

[2] = disclosed in Patent Literature 2 (WO2022/045052); cited from earlier work

Description for physchem: as §1

Row | SMILES | logP (physchem) | Partition coefficient (logP) [1] | hydrogen sulfide elimination effect [2]
1 | CC(=O)OCC(C)(C)[C@@H](O)C(=O)NCCC(=O)NCCSSSCCNC(=O)CCNC(=O)[C@H](O)C(C)(C)COC(C)=O [Ac-PTN-SSS, acetyl derivative of pantethine trisulfide] | 0.91 |  | 
2 | CC1(C)OCC(C)(C)[C@H](C(=O)NCCC(=O)NCCSSSCCNC(=O)CCNC(=O)[C@@H]2OC(C)(C)OCC2(C)C)O1 [Acetonide-PTN-SSS, acetonide derivative of pantethine trisulfide] | 1.56 |  | 
3 | CC(C)(CO)[C@@H](O)C(=O)NCCC(=O)NCCSSSCCNC(=O)CCNC(=O)[C@H](O)C(C)(C)CO [PTN-SSS, Pantethine trisulfide] |  | −0.39 | has a hydrogen sulfide elimination effect
